≈ marks a conversion by molar mass, not a printed value. Like-named read-outs stand apart in the source and are kept apart here.
Legend:
[1] = Solubility in double-distilled water; assay type: physicochemical
Experimental: Physical characteristics of AMB derivatives and of AMB were tested, including solubility.

Aspergillus fumigatus = assay: MIC/MFC broth dilution (CLSI), clinical isolates; assay type: cell-based; conditions: A. fumigatus
Experimental: (§1) Isolates of Aspergillus fumigatus, Aspergillus flavus, Aspergillus terreus Aspergillus niger, Rhizopus oryzae, Candida albicans and Candida krusei were isolated from patients in Israeli hospitals and used for in vitro efficacy studies.
(§2) Efficacy was evaluated by measuring minimum inhibitory concentration (MIC) and minimum fungicidal concentration (MFC) values for fungal isolates. Testing of isolates was performed according to the Clinical & Laboratory Standards Institute (CLSI) method. (CLSI. 2008. M27-A3 Reference method for broth dilution antifungal susceptibility testing of yeasts; Approved Standard—3rd edition. Clinical and Laboratory Standards Institute, Wayne). RPMI MOPS media was used throughout the experiment as growth and dilution media. Spores and yeast cells were harvested in 0.05% Tween from 24-48 h and cultures were grown in rich yeast extract-agar-glucose (YAG) medium (composed of: 0.5% w/v yeast extract, 1% w/v glucose, 10 millimolar (mM) MgCl2, supplemented with 0.1% v/v trace elements solution, and 0.2% v/v vitamin mix). The spores and the yeast cells were counted and diluted to a final concentration of 2.5×10^4 per ml. A stock solution of 5 mg/ml was prepared in dimethylsulfoxide for free AMB. Compounds 4 and 6 were prepared in sterile saline. Double dilutions of each drug were performed in 100 μL volume of RPMI-MOPS in 96 well plates beginning with a final concentration of 32 micrograms (μg)/well of each drug to 0.06 μg/well. 2500 spores or yeast cells were added to each well. Results were recorded 48 h post incubation at 37° C. […] The MFC was defined as the lowest drug concentration that yielded three or fewer colonies (i.e. 99% of the inoculum was killed).

[2] = Solubility in 0.9% saline after vortex, sonication and centrifuge; assay type: physicochemical
[3] = test system: mouse embryonic fibroblasts (MEFs); assay: MTT viability assay in mouse embryonic fibroblasts; assay type: cell-based
Experimental: Reference is made to FIG. 4C. Mouse embryonic fibroblasts were used in this example. 1×10^4 mouse embryonic fibroblasts (MEFs) per well were seeded in 96-well plates and incubated at 37° C. After 24 h the media was replaced with 100 μl culture medium containing serial dilutions of AMB, compounds 4 or 6, or left untreated. After 24 h, the media was replaced by fresh media (100 μl per well) containing 1 mg/ml MTT (3-(4,5-Dimethylthiazol-2-yl)-2,5-Diphenyltetrazolium Bromide, ((Biological Industries, Israel)) reagent and the cells were incubated for an additional 3 h at 37° C. MTT-formazan crystals were dissolved by the addition of 100 μl per well of extraction solution (20% SDS, 50% N,N-dimethyl formamide (DMF), pH=4.7) and incubation for 16 h at 37° C. Absorbance at 570 nm was recorded on a Biotek Synergy HT plate reader.
The results were expressed as the percentage of living cells relative to the untreated control and are depicted in FIG. 4C. The inhibition concentration (IC50) value is the concentration of the compound which inhibited cell growth by 50%.

ICR mice = assay: In vivo toxicity, intravenous injection; conditions: female ICR mice, intravenous
Experimental: In-vivo toxicity was determined in mice using 6 week old female ICR mice (n=6). Different concentrations of each formulation were injected intravenously through the tail vein, 0.2 ml per mouse, until death was observed. PAD-AMB conjugates were prepared in sterile saline solution and were filtered through 0.45-micrometer pore-size cellulose acetate sterile filters prior to injection.

Aspergillus terreus = assay: MIC/MFC broth dilution (CLSI), clinical isolates; assay type: cell-based; conditions: listed as printed C. terreus, 1 isolate, 48 h at 37° C.
Experimental: as §1, §2

Candida krusei = assay: MIC/MFC broth dilution (CLSI), clinical isolates; assay type: cell-based; conditions: C. krusei, 3 isolates, 48 h at 37° C.
Experimental: as §1, §2

Aspergillus niger = assay: MIC/MFC broth dilution (CLSI), clinical isolates; assay type: cell-based; conditions: A. niger, 3 isolates, 48 h at 37° C.
Experimental: as §1, §2

Rhizopus oryzae = assay: MIC/MFC broth dilution (CLSI), clinical isolates; assay type: cell-based; conditions: 1 isolate, 48 h at 37° C.
Experimental: as §1, §2

Candida albicans = assay: MIC/MFC broth dilution (CLSI), clinical isolates; assay type: cell-based; conditions: C. albicans, 2 isolates, 48 h at 37° C.
Experimental: as §1, §2

Aspergillus flavus = assay: MIC/MFC broth dilution (CLSI), clinical isolates; assay type: cell-based; conditions: A. Flavus, 3 isolates, 48 h at 37° C.
Experimental: as §1, §2

human erythrocytes = assay: In-vitro toxicity (hemolysis) study; assay type: cell-based; conditions: 6 μg/ml
Experimental: Reference is made to FIG. 4B. Fresh human erythrocytes were diluted 1:100 in PBS, and incubated in an Eppendorf tube while rotating slowly in the presence of 6 μg/ml of each of compound 4 and compound 6. Amphotericin B was used as positive control. Sterile double distilled water served as a control for 100% hemolysis. After 1, 3, 5 and 21 h, 20 μl of each test tube were removed and diluted in 180 μl PBS. Samples were centrifuged for 10 minutes at 1200 RPM and the optical density of the supernatant was measured at 425 nm.

[4] = Stability (hydrolysis) in phosphate buffered saline; assay type: physicochemical
C. albicans (CBS562) = assay: MIC of compound 6, AMB and FMOC-6; assay type: cell-based, Candida albicans
Experimental: as §2
(§3) In addition, the amine protected equivalent of compound 6 in which the amine of compound 6 was protected with an FMOC group was tested (designated FMOC-6) to determine MIC versus AMB and versus compound 6 against A. fumigatus (Af 293) and C. albicans (CBS562).

A. fumigatus (Af 293) = assay: MIC of compound 6, AMB and FMOC-6; assay type: cell-based, Aspergillus fumigatus
Experimental: as §2, §3

CC1C=CC=CC=CC=CC=CC=CC=CC(OC2OC(C)C(O)C(NC(=O)CCOCCOCCOCCOCCN)C2O)CC2OC(O)(CC(O)CC(O)C(O)CCC(O)CC(O)CC(=O)OC(C)C(C)C1O)CC(O)C2C(=O)O (centres unmarked) [AMB-PEG4-amine]
Solubility ([1]; double-distilled water): 300 µg/mL (≈ 256 µM) | MIC (Aspergillus fumigatus; strain not stated): 2 to 3 µg/mL

COC(=O)C1C(O)CC2(O)CC(O)CC(O)C(O)CCC(O)CC(O)CC(=O)OC(C)C(C)C(O)C(C)C=CC=CC=CC=CC=CC=CC=CC(OC3OC(C)C(O)C(NC(=O)CCOCCOCCOCCOCCN)C3O)CC1O2 (centres unmarked) [AME-PEG4-amine]
Solubility [1]: Insoluble

COC(=O)[C@H]1[C@@H]2C[C@@H](O[C@@H]3O[C@H](C)[C@@H](O)[C@H](N)[C@@H]3O)/C=C/C=C/C=C/C=C/C=C/C=C/C=C/[C@H](C)[C@@H](O)[C@@H](C)[C@H](C)OC(=O)C[C@H](O)C[C@H](O)CC[C@@H](O)[C@H](O)C[C@H](O)C[C@](O)(C[C@@H]1O)O2 [Amphotericin B methyl ester, reference compound]
Solubility [1]: <1 µg/mL

C[C@@H]1[C@H](O)[C@@H](C)/C=C/C=C/C=C/C=C/C=C/C=C/C=C/[C@H](O[C@@H]2O[C@H](C)[C@@H](O)[C@H](NC(=O)CCOCCOCCOCCOCCOCCOCCOCCOCCN)[C@@H]2O)C[C@@H]2O[C@](O)(C[C@@H](O)C[C@@H](O)[C@H](O)CC[C@@H](O)C[C@@H](O)CC(=O)O[C@H]1C)C[C@H](O)[C@H]2C(=O)O [Compound 4, amphotericin B amide-PEG(8)-amine]
increased solubility relative to corresponding non-PEG-conjugated AMB compounds [2]: greater than 5500 fold | Solubility ([1]; double-distilled water): 5500 µg/mL (≈ 4080 µM) | IC50 (concentration which inhibited cell growth by 50%) ([3]; 24 h exposure, MTT): 280 µg/mL | times less toxic than AMB ([3]; from IC50): 40 times | mouse LD50 fold higher than AMB (ICR mice): at least 20 fold | signs of toxicity at the highest injectable doses (ICR mice): did not show any signs of toxicity | LD50 (ICR mice; tail vein): not reached | Maximum Dose (ICR mice; tail vein): 22 mg/kg | MFC (Aspergillus terreus): 32 µg/mL (≈ 23.7 µM) | MIC (Aspergillus terreus): 32 µg/mL (≈ 23.7 µM) | MFC (Candida krusei): 8 µg/mL (≈ 5.94 µM) | MIC (Candida krusei): 4 to 8 µg/mL | MFC (Aspergillus niger): 1 to 4 µg/mL | MIC (Aspergillus niger): 1 to 4 µg/mL | MFC (Rhizopus oryzae): 8 µg/mL (≈ 5.94 µM) | MIC (Rhizopus oryzae): 8 µg/mL (≈ 5.94 µM) | MFC (Aspergillus fumigatus; 4 isolates, 48 h at 37° C.): 4 to 16 µg/mL | MIC (Aspergillus fumigatus; 4 isolates, 48 h at 37° C.): 4 to 16 µg/mL | MFC (Candida albicans): 4 µg/mL (≈ 2.97 µM) | MIC (Candida albicans): 1 to 2 µg/mL | MFC (Aspergillus flavus): 4 to 8 µg/mL | MIC (Aspergillus flavus): 4 to 8 µg/mL | hemolytic activity (human erythrocytes; after 3 h of agitation): small hemolytic activity | toxicity to erythrocytes (human erythrocytes; assay conditions of FIG. 4B): less toxic (about four times less) | hydrolysis after 4 hours ([4]; 4 hours): no hydrolysis could be observed | level of hydrolysis after 24 hours ([4]; 24 hours): 0.51%

COC(=O)C1C(O)CC2(O)CC(O)CC(O)C(O)CCC(O)CC(O)CC(=O)OC(C)C(C)C(O)C(C)C=CC=CC=CC=CC=CC=CC=CC(OC3OC(C)C(O)C(NC(=O)CCOCCOCCOCCOCCOCCOCCOCCOCCNC(=O)OCC4c5ccccc5-c5ccccc54)C3O)CC1O2 (centres unmarked) [FMOC-6]
MIC (C. albicans (CBS562)): >32 µg/mL | MIC (A. fumigatus (Af 293)): >32 µg/mL

Reference: patent publication US9750817B2, “Amphotericin B derivatives” (priority 2015, dated 2017)
